Test results as given in ChEMBL document CHEMBL5653631, “A Potent and Selective ULK1 Inhibitor Suppresses Autophagy and Sensitizes Cancer Cells to Nutrient Stress” (iScience, 2018).

Key:
Homo sapiens = species on record: Homo sapiens; experiment: Inhibition of human recombinant CK1d at 40 nM in presence of ATP by radiometric assay relative to control
[1] = molecular target: T1, Interleukin-1 receptor-associated kinase 4 (Homo sapiens) (UniProt Q9NWZ3); experiment: Inhibition of human recombinant IRAK4 at 40 nM in presence of ATP by radiometric assay relative to control
T1 sequence (whole entry): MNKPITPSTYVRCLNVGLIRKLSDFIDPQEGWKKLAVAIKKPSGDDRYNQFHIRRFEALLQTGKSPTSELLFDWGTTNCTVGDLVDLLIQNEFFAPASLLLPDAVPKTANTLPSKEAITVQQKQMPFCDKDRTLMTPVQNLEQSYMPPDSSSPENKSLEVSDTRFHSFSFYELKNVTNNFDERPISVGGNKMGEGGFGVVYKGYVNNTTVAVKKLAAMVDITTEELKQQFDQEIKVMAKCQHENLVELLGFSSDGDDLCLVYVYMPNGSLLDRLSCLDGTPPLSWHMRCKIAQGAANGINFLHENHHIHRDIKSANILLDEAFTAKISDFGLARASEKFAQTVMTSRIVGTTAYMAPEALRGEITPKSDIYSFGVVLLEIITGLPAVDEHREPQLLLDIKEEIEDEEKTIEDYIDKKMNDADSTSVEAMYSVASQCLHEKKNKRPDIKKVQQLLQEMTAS

[2] = molecular target: T2, Serine/threonine-protein kinase Nek1 (Homo sapiens) (UniProt Q96PY6); experiment: Inhibition of human recombinant NEK1 at 40 nM in presence of ATP by radiometric assay relative to control
T2 sequence (whole entry): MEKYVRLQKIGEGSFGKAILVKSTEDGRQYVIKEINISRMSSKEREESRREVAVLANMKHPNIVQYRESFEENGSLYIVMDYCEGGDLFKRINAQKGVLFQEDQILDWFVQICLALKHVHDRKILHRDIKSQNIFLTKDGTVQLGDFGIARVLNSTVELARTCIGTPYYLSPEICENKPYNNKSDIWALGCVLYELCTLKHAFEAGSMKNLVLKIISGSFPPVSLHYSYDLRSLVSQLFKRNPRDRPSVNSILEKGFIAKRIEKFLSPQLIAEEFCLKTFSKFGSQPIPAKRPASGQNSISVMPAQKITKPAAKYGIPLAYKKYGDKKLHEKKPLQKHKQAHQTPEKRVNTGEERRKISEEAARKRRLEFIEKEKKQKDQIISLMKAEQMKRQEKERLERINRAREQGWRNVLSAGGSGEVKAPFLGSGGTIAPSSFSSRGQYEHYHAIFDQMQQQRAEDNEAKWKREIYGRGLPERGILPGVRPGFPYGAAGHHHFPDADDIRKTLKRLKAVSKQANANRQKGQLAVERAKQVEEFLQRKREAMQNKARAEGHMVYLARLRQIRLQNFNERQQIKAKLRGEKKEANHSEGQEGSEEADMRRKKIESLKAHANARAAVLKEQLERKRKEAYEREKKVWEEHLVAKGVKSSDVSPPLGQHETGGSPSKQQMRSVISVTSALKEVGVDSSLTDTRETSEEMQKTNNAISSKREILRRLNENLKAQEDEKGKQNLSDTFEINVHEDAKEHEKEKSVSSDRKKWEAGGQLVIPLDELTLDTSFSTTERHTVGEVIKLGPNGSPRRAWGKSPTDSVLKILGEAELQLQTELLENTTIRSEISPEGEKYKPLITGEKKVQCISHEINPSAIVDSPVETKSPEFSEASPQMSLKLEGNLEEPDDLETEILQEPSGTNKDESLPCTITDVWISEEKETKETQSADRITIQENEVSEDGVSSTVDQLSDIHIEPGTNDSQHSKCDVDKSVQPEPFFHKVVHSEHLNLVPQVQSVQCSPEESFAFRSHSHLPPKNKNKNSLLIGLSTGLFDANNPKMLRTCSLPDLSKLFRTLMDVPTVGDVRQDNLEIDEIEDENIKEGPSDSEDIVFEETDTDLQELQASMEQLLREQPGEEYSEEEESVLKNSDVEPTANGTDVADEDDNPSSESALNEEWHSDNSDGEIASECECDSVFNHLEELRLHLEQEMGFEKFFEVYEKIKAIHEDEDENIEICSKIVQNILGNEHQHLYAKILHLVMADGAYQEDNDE

[3] = molecular target: T3, Ephrin type-B receptor 3 (Homo sapiens) (UniProt P54753); experiment: Inhibition of human recombinant EphB3 at 40 nM related to control ULK1
T3 sequence (whole entry): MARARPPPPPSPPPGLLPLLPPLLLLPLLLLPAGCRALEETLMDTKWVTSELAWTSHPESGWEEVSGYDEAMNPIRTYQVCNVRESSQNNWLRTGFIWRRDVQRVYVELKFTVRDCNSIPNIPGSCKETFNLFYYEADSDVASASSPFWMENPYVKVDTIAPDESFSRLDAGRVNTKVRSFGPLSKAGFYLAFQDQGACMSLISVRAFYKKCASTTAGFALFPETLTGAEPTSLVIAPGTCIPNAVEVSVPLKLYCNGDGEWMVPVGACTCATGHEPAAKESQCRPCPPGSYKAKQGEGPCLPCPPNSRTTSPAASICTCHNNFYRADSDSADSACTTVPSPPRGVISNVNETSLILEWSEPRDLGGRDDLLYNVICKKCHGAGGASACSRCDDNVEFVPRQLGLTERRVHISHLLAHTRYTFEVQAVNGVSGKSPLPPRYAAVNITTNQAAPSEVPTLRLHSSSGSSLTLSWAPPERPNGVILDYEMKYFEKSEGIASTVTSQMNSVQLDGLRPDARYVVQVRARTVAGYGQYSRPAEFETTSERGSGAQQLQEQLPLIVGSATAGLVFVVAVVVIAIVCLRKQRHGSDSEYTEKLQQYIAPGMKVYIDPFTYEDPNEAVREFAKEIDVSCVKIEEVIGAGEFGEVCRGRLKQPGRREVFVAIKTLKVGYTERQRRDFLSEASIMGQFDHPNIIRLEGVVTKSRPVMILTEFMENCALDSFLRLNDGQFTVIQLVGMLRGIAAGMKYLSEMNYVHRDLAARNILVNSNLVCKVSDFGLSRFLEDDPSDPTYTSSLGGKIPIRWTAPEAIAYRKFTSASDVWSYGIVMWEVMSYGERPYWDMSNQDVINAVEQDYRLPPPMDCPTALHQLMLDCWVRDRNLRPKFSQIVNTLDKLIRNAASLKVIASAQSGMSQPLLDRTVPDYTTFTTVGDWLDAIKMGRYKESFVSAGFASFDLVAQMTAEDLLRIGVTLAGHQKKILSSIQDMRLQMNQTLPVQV

[4] = molecular target: Tyrosine-protein kinase HCK (Homo sapiens) (UniProt P08631); experiment: Inhibition of human recombinant HCK at 15 nM in presence of ATP by radiometric assay relative to control
Sequence of Tyrosine-protein kinase HCK (Homo sapiens) (P08631 2-526 limits assumed): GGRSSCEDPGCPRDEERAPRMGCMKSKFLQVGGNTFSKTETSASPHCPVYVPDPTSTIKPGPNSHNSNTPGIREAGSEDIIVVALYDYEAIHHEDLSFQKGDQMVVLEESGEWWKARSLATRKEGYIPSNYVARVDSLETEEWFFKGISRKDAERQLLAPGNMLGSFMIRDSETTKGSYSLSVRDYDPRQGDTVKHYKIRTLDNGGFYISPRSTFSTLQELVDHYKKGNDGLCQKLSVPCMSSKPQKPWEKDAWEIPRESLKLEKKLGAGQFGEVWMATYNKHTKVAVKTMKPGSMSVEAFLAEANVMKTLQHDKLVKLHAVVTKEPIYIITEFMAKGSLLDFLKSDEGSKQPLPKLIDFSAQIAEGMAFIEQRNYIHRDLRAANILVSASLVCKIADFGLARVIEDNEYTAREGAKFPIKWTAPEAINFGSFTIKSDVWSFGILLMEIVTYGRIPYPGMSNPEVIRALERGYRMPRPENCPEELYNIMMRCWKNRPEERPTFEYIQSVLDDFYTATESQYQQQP

SMILES	inhibition (Homo sapiens) [%]	inhibition [1] [%]	inhibition [2] [%]	fold change (FC) [3]	inhibition [4] [%]
O=C(N[C@@H](C1CC1)C(F)(F)F)c1cc(-c2cnn3cc(-c4ccc(F)cc4)cnc23)cs1	3	0	0	0	–
CC(C)[C@H](NC(=O)c1cc(-c2cnn3cc(-c4ccc(OCCN5CCCCC5)cc4)cnc23)cs1)C(F)(F)F	–	–	–	–	26
